How the values were obtained:
Type in all cases: in vivo
rice (Oryra sativa) = experiment: Test B flooded paddy test; conditions: Oryza sativa, 250 g ai/ha, Flood; 0 to 100 scale where 0 is no effect and 100 is complete control; read-out: Rice plant response rating
Method in brief: (§1)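 Percent control, visually estimated after 13–15 d in the greenhouse on a 0–100 basis, compares treated pots with untreated ones; compound was put into paddy water 3 cm above the soil when plants had two leaves.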

[1] = system: ducksalad (Heteranthera limosa); experiment: Test B flooded paddy test; conditions: Heteranthera limosa, 250 g ai/ha, Flood; 0 to 100 scale where 0 is no effect and 100 is complete control; read-out: Ducksalad plant response rating
Method in brief: as §1

[2] = system: sedge, umbrella (small-flower umbrella sedge, Cyperus difformis); experiment: Test B flooded paddy test; conditions: Cyperus difformis, 250 g ai/ha, Flood; 0 to 100 scale where 0 is no effect and 100 is complete control; read-out: Sedge, Umbrella plant response rating
Method in brief: as §1

[3] = system: barnyardgrass (Echinochloa crus-galli); experiment: Test B flooded paddy test; conditions: Echinochloa crus-galli, 250 g ai/ha, Flood; 0 to 100 scale where 0 is no effect and 100 is complete control; read-out: Barnyardgrass plant response rating
Method in brief: as §1

[4] = system: pigweed (Amaranthus retroflexus); experiment: Test A preemergence; conditions: Amaranthus retroflexus, pre-emergence, 240 h, 0 to 100 scale where 0 is no effect and 100 is complete control, read-out: Pigweed plant response rating
Kochia (Kochia scoparia) [5] = experiment: Test A preemergence; conditions: Bassia scoparia, pre-emergence, 240 h, 0 to 100 scale where 0 is no effect and 100 is complete control, read-out: Kochia plant response rating
Method in brief: (§2)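 Preemergence soil spray on seeded pots or post-emergence spray on 1–2 leaf plants, in loam–sand blend. Greenhouse ~10 d. Visual rating 0–100 against untreated plants.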

[6] = system: giant foxtail (Setaria faberii); experiment: Test A preemergence; conditions: Setaria faberi, pre-emergence, 240 h, 0 to 100 scale where 0 is no effect and 100 is complete control, read-out: Foxtail, Giant plant response rating
Method in brief: as §2

[7] = system: ragweed (common ragweed, Ambrosia elatior); experiment: Test A preemergence; conditions: Ambrosia artemisiifolia, pre-emergence, 240 h, 0 to 100 scale where 0 is no effect and 100 is complete control, read-out: Ragweed plant response rating
Method in brief: as §2

[8] = system: barnyardgrass (Echinochloa crus-galli); experiment: Test A preemergence; conditions: Echinochloa crus-galli, pre-emergence, 240 h, 0 to 100 scale where 0 is no effect and 100 is complete control, read-out: Barnyardgrass plant response rating
Method in brief: as §2

[9] = system: ryegrass, Italian (Italian ryegrass, Lolium multiflorum); experiment: Test A preemergence; conditions: Lolium multiflorum, pre-emergence, 240 h, 0 to 100 scale where 0 is no effect and 100 is complete control, read-out: Ryegrass, Italian plant response rating
Method in brief: as §2

[10] = system: pigweed (Amaranthus retroflexus); experiment: Test A postemergence; conditions: Amaranthus retroflexus, post-emergence, 240 h, Postemergence, read-out: Pigweed plant response rating (0 to 100 scale)
Method in brief: as §2

Kochia (Kochia scoparia) [11] = experiment: Test A postemergence; conditions: Bassia scoparia, post-emergence, 240 h, Postemergence, read-out: Kochia plant response rating (0 to 100 scale)
Method in brief: as §2

[12] = system: giant foxtail (Setaria faberii); experiment: Test A postemergence; conditions: Setaria faberi, post-emergence, 240 h, Postemergence, read-out: Foxtail, Giant plant response rating (0 to 100 scale)
Method in brief: as §2

[13] = system: ragweed (common ragweed, Ambrosia elatior); experiment: Test A postemergence; conditions: Ambrosia artemisiifolia, post-emergence, 240 h, Postemergence, read-out: Ragweed plant response rating (0 to 100 scale)
Method in brief: as §2

corn (Zea mays) = experiment: Test A postemergence; conditions: Zea mays, post-emergence, 240 h, Postemergence, read-out: Corn plant response rating (0 to 100 scale)
Method in brief: as §2

[14] = system: blackgrass (Alopecurus myosuroides); experiment: Test A postemergence; conditions: Alopecurus myosuroides, post-emergence, 240 h, Postemergence, read-out: Blackgrass plant response rating (0 to 100 scale)
Method in brief: as §2

[15] = system: wheat (Triticum aestivum); experiment: Test A postemergence; conditions: Triticum aestivum, post-emergence, 240 h, Postemergence, read-out: Wheat plant response rating (0 to 100 scale)
Method in brief: as §2

[16] = system: Galium (catchweed bedstraw, Galium aparine); experiment: Test A postemergence; conditions: Galium, post-emergence, 240 h, Postemergence, read-out: Galium plant response rating (0 to 100 scale)
Method in brief: as §2

[17] = system: barnyardgrass (Echinochloa crus-galli); experiment: Test A postemergence; conditions: Echinochloa crus-galli, post-emergence, 240 h, Postemergence
Method in brief: as §2

[18] = system: ryegrass, Italian (Italian ryegrass, Lolium multiflorum); experiment: Test A postemergence; conditions: Lolium multiflorum, post-emergence, 240 h, Postemergence, read-out: Ryegrass, Italian plant response rating (0 to 100 scale)
Method in brief: as §2

[19] = 125 g ai/ha, preemergence, visual injury rating, approximately 10 d
[20] = 125 g ai/ha, visual rating about 10 d after treatment
[21] = 31 g ai/ha, 0 is no effect, 100 is complete control

CN1C[C@H](c2cccc(C#N)c2)[C@@H](C(=O)Nc2ccc(F)c(F)c2F)C1=O [Compound 1287] gave a pest or weed control at 250 g/ha (rice (Oryra sativa)) of 15%, a pest or weed control at 250 g/ha [1] of 80% and a pest or weed control at 250 g/ha [2] of 0%. For the same molecule, the pest or weed control at 250 g/ha [3] was 75%, the pest or weed control at 31 g/ha ([4]; 31 g ai/ha, Preemergence) was 0% and the pest or weed control at 125 g/ha [4, 19] was 40%. The pest or weed control at 31 g/ha (Kochia (Kochia scoparia) [5]; 31 g ai/ha, Preemergence) was 20%, the pest or weed control at 125 g/ha (Kochia (Kochia scoparia) [5]; [19]) was 70% and the pest or weed control at 31 g/ha ([6]; 31 g ai/ha, Preemergence) was 100%. The pest or weed control at 125 g/ha [6, 19] was 100%, the pest or weed control at 31 g/ha ([7]; 31 g ai/ha, Preemergence) was 0% and the pest or weed control at 125 g/ha [7, 19] was 0%. It also gave a pest or weed control at 31 g/ha ([8]; 31 g ai/ha, Preemergence) of 90%, a pest or weed control at 125 g/ha [8, 19] of 100% and a pest or weed control at 31 g/ha ([9]; 31 g ai/ha, Preemergence) of 0%. It also gave a pest or weed control at 125 g/ha [9, 19] of 40%, a pest or weed control at 125 g/ha [10, 20] of 0% and a pest or weed control at 31 g/ha [10, 21] of 0%. It also gave a pest or weed control at 125 g/ha (Kochia (Kochia scoparia) [11]; [20]) of 30%, a pest or weed control at 31 g/ha (Kochia (Kochia scoparia) [11]; [21]) of 0% and a pest or weed control at 125 g/ha [12, 20] of 80%. For the same molecule, the pest or weed control at 31 g/ha [12, 21] was 70%, the pest or weed control at 125 g/ha [13, 20] was 0% and the pest or weed control at 31 g/ha [13, 21] was 0%. The plant injury at 125 g/ha (corn (Zea mays); [20]) was 0%, the plant injury at 31 g/ha (corn (Zea mays); [21]) was 0% and the pest or weed control at 125 g/ha [14, 20] was 20%. For the same molecule, the pest or weed control at 31 g/ha [14, 21] was 0%, the plant injury at 125 g/ha [15, 20] was 0% and the plant injury at 31 g/ha [15, 21] was 0%. For the same molecule, the pest or weed control at 125 g/ha [16, 20] was 40%, the pest or weed control at 31 g/ha [16, 21] was 30% and the pest or weed control at 125 g/ha ([17]; 125 g ai/ha, visual rating about 10 d after treatment, read-out: Barnyardgrass plant response rating (0 to 100 scale, 0 no effect, 100 complete control)) was 90%. It also gave a pest or weed control at 31 g/ha ([17]; 31 g ai/ha, 0 is no effect, 100 is complete control, read-out: Barnyardgrass plant response rating (0 to 100 scale)) of 80%, a pest or weed control at 125 g/ha [18, 20] of 0% and a pest or weed control at 31 g/ha [18, 21] of 0%.

From US12077503B2, “Substituted cyclic amides and their use as herbicides” (FMC CORPORATION, priority 2015, dated 2024)
